Read-outs that look alike come from different tables or passages of the source. Marks after values point to notes of the source that are not given here.
Columns and labels:
[1] = test system: Cobb broiler breeder hens and roosters; assay type: in vivo
Excerpt: Molting Cobb Broiler Breeder Hens and Roosters with Dietary Thyroxine.

[2] = test system: Bovans caged laying hens; assay: Experiment 6: molting of caged laying hens with dietary L-thyroxine or thyroactive iodinated casein; assay type: in vivo, chickens; settings: for 9 Jun. 2005 (9th d Trt) Body Wt Change: 10 hours of light daily; for 25 May 2005 Initial Body Wt: before 7-day pretest
Excerpt: Experiment 6. Molting of Caged Laying with Dietary L-Thyroxine or Thyroactive Iodinated Casein
In Experiment 6, a conventional feed withdrawal molting procedure was compared with 5 dietary thyroxine treatments. Body weight loss after 9 days was greater, days to 0% egg production (9 days) shorter, ovary plus oviduct weight numerically lighter on day 9 of treatment, but eggs collected on day 4 of treatment had thinner shells, in the feed withdrawal group.

[3] = test system: 66-week-old caged laying hens; settings: cited from earlier work

In the case of `N[C@@H](Cc1cc(I)c(Oc2cc(I)c(O)c(I)c2)c(I)c1)C(=O)O` [L-thyroxine, 3,5,3′,5′-tetraiodothyronine], the Tolerance in roosters ([1]; 25 or 40 mg/kg diet, roosters began to stroke blood from the nostrils) was “males were unable to tolerate these levels of L-thyroxine”, the “# Eggs per pen” value ([1]; 25 ppm feed from 22-Sep, pen 50, 1-Nov) was 0 and the “# Eggs per pen” value ([1]; 25 ppm feed from 22-Sep, pen 50, 1-Oct) was 3. For the same compound, the “# Eggs per pen” value ([1]; 25 ppm feed from 22-Sep, pen 50, 2-Nov) was 0, the “# Eggs per pen” value ([1]; 25 ppm feed from 22-Sep, pen 50, 2-Oct) was 1 and the “# Eggs per pen” value ([1]; 25 ppm feed from 22-Sep, pen 50, 3-Nov) was 0. The “# Eggs per pen” value ([1]; 25 ppm feed from 22-Sep, pen 50, 3-Oct) was 0, the “# Eggs per pen” value ([1]; 25 ppm feed from 22-Sep, pen 50, 4-Nov) was 0 and the “# Eggs per pen” value ([1]; 25 ppm feed from 22-Sep, pen 50, 4-Oct) was 1. The “# Eggs per pen” value ([1]; 25 ppm feed from 22-Sep, pen 50, 5-Oct) was 1, the “# Eggs per pen” value ([1]; 25 ppm feed from 22-Sep, pen 50, 6-Oct) was 0 and the “# Eggs per pen” value ([1]; 25 ppm feed from 22-Sep, pen 50, 7-Oct) was 0. For the same compound, the “# Eggs per pen” value ([1]; 25 ppm feed from 22-Sep, pen 50, 8-Oct) was 3, the “# Eggs per pen” value ([1]; 25 ppm feed from 22-Sep, pen 50, 9-Oct) was 1 and the “# Eggs per pen” value ([1]; 25 ppm feed from 22-Sep, pen 50, 10-Oct) was 0. For the same compound, the “# Eggs per pen” value ([1]; 25 ppm feed from 22-Sep, pen 50, 11-Oct) was 0, the “# Eggs per pen” value ([1]; 25 ppm feed from 22-Sep, pen 50, 12-Oct) was 0 and the “# Eggs per pen” value ([1]; 25 ppm feed from 22-Sep, pen 50, 13-Oct) was 0. The “# Eggs per pen” value ([1]; 25 ppm feed from 22-Sep, pen 50, 14-Oct) was 0, the “# Eggs per pen” value ([1]; 25 ppm feed from 22-Sep, pen 50, 15-Oct) was 0 and the “# Eggs per pen” value ([1]; 25 ppm feed from 22-Sep, pen 50, 16-Oct) was 0. For the same compound, the “# Eggs per pen” value ([1]; 25 ppm feed from 22-Sep, pen 50, 16-Sep) was 15, the “# Eggs per pen” value ([1]; 25 ppm feed from 22-Sep, pen 50, 17-Oct) was 0 and the “# Eggs per pen” value ([1]; 25 ppm feed from 22-Sep, pen 50, 17-Sep) was 14. For the same compound, the “# Eggs per pen” value ([1]; 25 ppm feed from 22-Sep, pen 50, 18-Oct) was 0, the “# Eggs per pen” value ([1]; 25 ppm feed from 22-Sep, pen 50, 18-Sep) was 11 and the “# Eggs per pen” value ([1]; 25 ppm feed from 22-Sep, pen 50, 19-Oct) was 0. The “# Eggs per pen” value ([1]; 25 ppm feed from 22-Sep, pen 50, 19-Sep) was 17, the “# Eggs per pen” value ([1]; 25 ppm feed from 22-Sep, pen 50, 20-Oct) was 0 and the “# Eggs per pen” value ([1]; 25 ppm feed from 22-Sep, pen 50, 20-Sep) was 15. For the same compound, the “# Eggs per pen” value ([1]; 25 ppm feed from 22-Sep, pen 50, 21-Oct) was 0, the “# Eggs per pen” value ([1]; 25 ppm feed from 22-Sep, pen 50, 21-Sep) was 14 and the “# Eggs per pen” value ([1]; 25 ppm feed from 22-Sep, pen 50, 22-Oct) was 0. For the same compound, the “# Eggs per pen” value ([1]; 25 ppm feed from 22-Sep, pen 50, 22-Sep) was 14, the “# Eggs per pen” value ([1]; 25 ppm feed from 22-Sep, pen 50, 23-Oct) was 0 and the “# Eggs per pen” value ([1]; 25 ppm feed from 22-Sep, pen 50, 23-Sep) was 19. The “# Eggs per pen” value ([1]; 25 ppm feed from 22-Sep, pen 50, 24-Oct) was 0, the “# Eggs per pen” value ([1]; 25 ppm feed from 22-Sep, pen 50, 24-Sep) was 7 and the “# Eggs per pen” value ([1]; 25 ppm feed from 22-Sep, pen 50, 25-Oct) was 0. For the same compound, the “# Eggs per pen” value ([1]; 25 ppm feed from 22-Sep, pen 50, 25-Sep) was 8, the “# Eggs per pen” value ([1]; 25 ppm feed from 22-Sep, pen 50, 26-Oct) was 0 and the “# Eggs per pen” value ([1]; 25 ppm feed from 22-Sep, pen 50, 26-Sep) was 9. The “# Eggs per pen” value ([1]; 25 ppm feed from 22-Sep, pen 50, 27-Oct) was 0, the “# Eggs per pen” value ([1]; 25 ppm feed from 22-Sep, pen 50, 27-Sep) was 4 and the “# Eggs per pen” value ([1]; 25 ppm feed from 22-Sep, pen 50, 28-Oct) was 0. The “# Eggs per pen” value ([1]; 25 ppm feed from 22-Sep, pen 50, 28-Sep) was 3, the “# Eggs per pen” value ([1]; 25 ppm feed from 22-Sep, pen 50, 29-Oct) was 0 and the “# Eggs per pen” value ([1]; 25 ppm feed from 22-Sep, pen 50, 29-Sep) was 1. The “# Eggs per pen” value ([1]; 25 ppm feed from 22-Sep, pen 50, 30-Oct) was 0, the “# Eggs per pen” value ([1]; 25 ppm feed from 22-Sep, pen 50, 30-Sep) was 0 and the “# Eggs per pen” value ([1]; 25 ppm feed from 22-Sep, pen 50, 31-Oct) was 0. The “# Eggs per pen” value ([1]; 40 ppm feed from 22-Sep, pen 51, 1-Nov) was 1, the “# Eggs per pen” value ([1]; 40 ppm feed from 22-Sep, pen 51, 1-Oct) was 1 and the “# Eggs per pen” value ([1]; 40 ppm feed from 22-Sep, pen 51, 2-Nov) was 3. For the same compound, the “# Eggs per pen” value ([1]; 40 ppm feed from 22-Sep, pen 51, 2-Oct) was 0, the “# Eggs per pen” value ([1]; 40 ppm feed from 22-Sep, pen 51, 3-Nov) was 3 and the “# Eggs per pen” value ([1]; 40 ppm feed from 22-Sep, pen 51, 3-Oct) was 0. For the same compound, the “# Eggs per pen” value ([1]; 40 ppm feed from 22-Sep, pen 51, 4-Nov) was 5, the “# Eggs per pen” value ([1]; 40 ppm feed from 22-Sep, pen 51, 4-Oct) was 0 and the “# Eggs per pen” value ([1]; 40 ppm feed from 22-Sep, pen 51, 5-Oct) was 0. For the same compound, the “# Eggs per pen” value ([1]; 40 ppm feed from 22-Sep, pen 51, 6-Oct) was 0, the “# Eggs per pen” value ([1]; 40 ppm feed from 22-Sep, pen 51, 7-Oct) was 0 and the “# Eggs per pen” value ([1]; 40 ppm feed from 22-Sep, pen 51, 8-Oct) was 0. For the same compound, the “# Eggs per pen” value ([1]; 40 ppm feed from 22-Sep, pen 51, 9-Oct) was 0, the “# Eggs per pen” value ([1]; 40 ppm feed from 22-Sep, pen 51, 10-Oct) was 0 and the “# Eggs per pen” value ([1]; 40 ppm feed from 22-Sep, pen 51, 11-Oct) was 0. For the same compound, the “# Eggs per pen” value ([1]; 40 ppm feed from 22-Sep, pen 51, 12-Oct) was 0, the “# Eggs per pen” value ([1]; 40 ppm feed from 22-Sep, pen 51, 13-Oct) was 0 and the “# Eggs per pen” value ([1]; 40 ppm feed from 22-Sep, pen 51, 14-Oct) was 0. For the same compound, the “# Eggs per pen” value ([1]; 40 ppm feed from 22-Sep, pen 51, 15-Oct) was 0, the “# Eggs per pen” value ([1]; 40 ppm feed from 22-Sep, pen 51, 16-Oct) was 0 and the “# Eggs per pen” value ([1]; 40 ppm feed from 22-Sep, pen 51, 16-Sep) was 12. For the same compound, the “# Eggs per pen” value ([1]; 40 ppm feed from 22-Sep, pen 51, 17-Oct) was 0, the “# Eggs per pen” value ([1]; 40 ppm feed from 22-Sep, pen 51, 17-Sep) was 19 and the “# Eggs per pen” value ([1]; 40 ppm feed from 22-Sep, pen 51, 18-Oct) was 0. For the same compound, the “# Eggs per pen” value ([1]; 40 ppm feed from 22-Sep, pen 51, 18-Sep) was 19, the “# Eggs per pen” value ([1]; 40 ppm feed from 22-Sep, pen 51, 19-Oct) was 0 and the “# Eggs per pen” value ([1]; 40 ppm feed from 22-Sep, pen 51, 19-Sep) was 20. The “# Eggs per pen” value ([1]; 40 ppm feed from 22-Sep, pen 51, 20-Oct) was 0, the “# Eggs per pen” value ([1]; 40 ppm feed from 22-Sep, pen 51, 20-Sep) was 16 and the “# Eggs per pen” value ([1]; 40 ppm feed from 22-Sep, pen 51, 21-Oct) was 0. The “# Eggs per pen” value ([1]; 40 ppm feed from 22-Sep, pen 51, 21-Sep) was 16, the “# Eggs per pen” value ([1]; 40 ppm feed from 22-Sep, pen 51, 22-Oct) was 0 and the “# Eggs per pen” value ([1]; 40 ppm feed from 22-Sep, pen 51, 22-Sep) was 18. The “# Eggs per pen” value ([1]; 40 ppm feed from 22-Sep, pen 51, 23-Oct) was 0, the “# Eggs per pen” value ([1]; 40 ppm feed from 22-Sep, pen 51, 23-Sep) was 15 and the “# Eggs per pen” value ([1]; 40 ppm feed from 22-Sep, pen 51, 24-Oct) was 0. For the same compound, the “# Eggs per pen” value ([1]; 40 ppm feed from 22-Sep, pen 51, 24-Sep) was 10, the “# Eggs per pen” value ([1]; 40 ppm feed from 22-Sep, pen 51, 25-Oct) was 0 and the “# Eggs per pen” value ([1]; 40 ppm feed from 22-Sep, pen 51, 25-Sep) was 11. For the same compound, the “# Eggs per pen” value ([1]; 40 ppm feed from 22-Sep, pen 51, 26-Oct) was 0, the “# Eggs per pen” value ([1]; 40 ppm feed from 22-Sep, pen 51, 26-Sep) was 6 and the “# Eggs per pen” value ([1]; 40 ppm feed from 22-Sep, pen 51, 27-Oct) was 0. For the same compound, the “# Eggs per pen” value ([1]; 40 ppm feed from 22-Sep, pen 51, 27-Sep) was 5, the “# Eggs per pen” value ([1]; 40 ppm feed from 22-Sep, pen 51, 28-Oct) was 0 and the “# Eggs per pen” value ([1]; 40 ppm feed from 22-Sep, pen 51, 28-Sep) was 0. For the same compound, the “# Eggs per pen” value ([1]; 40 ppm feed from 22-Sep, pen 51, 29-Oct) was 3, the “# Eggs per pen” value ([1]; 40 ppm feed from 22-Sep, pen 51, 29-Sep) was 1 and the “# Eggs per pen” value ([1]; 40 ppm feed from 22-Sep, pen 51, 30-Oct) was 3. For the same compound, the “# Eggs per pen” value ([1]; 40 ppm feed from 22-Sep, pen 51, 30-Sep) was 0, the “# Eggs per pen” value ([1]; 40 ppm feed from 22-Sep, pen 51, 31-Oct) was 3 and the “Time to reduced feed intake, ceased egg production and start of feather molt” value ([1]; Cobb broiler breeder hens on thyroxine treated feed (25 or 40 mg/kg)) was 15 to 17 days. For the same compound, the “9 Jun. 2005 (9th d Trt) Body Wt Change” value ([2]; 20 mg T4/kg diet) was −0.50^b lb, the “25 May 2005 Initial Body Wt” value ([2]; 20 mg T4/kg diet) was 3.49 lb and the “Days to 0% egg production” value ([2]; 40 mg T4/kg diet) was 11 days. The “Weight loss” value ([2]; 40 mg T4/kg diet) was −0.54 lb, the “9 Jun. 2005 (9th d Trt) Body Wt Change” value ([2]; 40 mg T4/kg diet) was −0.60^b lb and the “25 May 2005 Initial Body Wt” value ([2]; 40 mg T4/kg diet) was 3.57 lb. For the same compound, the “Days to target body weight (30% body weight loss)” value ([3]; 10 mg/kg feed in grape pomace diet after 1-day feed withdrawal) was 16 days and the “Days to target body weight (30% body weight loss)” value ([3]; corn diet with or without 10 mg/kg, 1-day fast or no fast) was 28 days.

From US8415299B2, “Methods for improved avian performance” (priority 2004, dated 2013)
